Tested on: zebrafish embryos
Assay: Brain size, morphology and volume of zebrafish embryos (microscopy, MRI)
Assay type: in vivo
Details: for brain size: day 2; for volume of the whole brain compared to untreated fish: MRI; for head size compared to untreated embryos: microscopic pictures
Procedure: An aqueous solution of a 25-mer antisense morpholino oligonucleotide (AMO, Gene Tools, LLC) corresponding to the vicinity of the translation initiation codon in the cDNA sequence of the gene to be knocked down ([…] injection conditions were the same as those used for RNA) was injected into the embryos at the 1-cell stage. The sequence of AMO used for the CRBN gene knockdown is 5′-[…]-3′ (SEQ ID NO: 3). The sequence of AMO used for the Lhx2 gene knockdown is 5′-[…]-3′ (SEQ ID NO:4). The sequence of AMO used for the BRD7 gene knockdown is 5′-[…]-3′ (SEQ ID NO:1). The sequence of AMO used for the Ikaros gene knockdown is 5′-[…]-3′ (SEQ ID NO:2). […]
In order to examine the effect of antagonists of BRD7 on brain growth, BRD7 was knocked down or over-expressed in zebrafish embryos. Knockdown of BRD7 was performed by microinjection of antisense morpholino oligonucleotides (AMO). Overexpression of BRD7 was performed by microinjection of synthesized capped mRNA. AMO or capped mRNA was introduced into one-cell stage embryos by using a nitrogen gas-pressure microinjector IM 300 (Narishige). Conditions for microinjection were as follows: gas pressure was about 15 picosiemens; release period was about 30 to about 50 milliseconds per single injection; concentrations of AMOs and capped mRNA were 400 ng/μl and 250 ng/μl in nuclease-free water, respectively. Capped mRNAs were synthesized in vitro using the mMESSAGE mMachine® in vitro transcription kit (Ambion) from cDNAs cloned into pCS2+ plasmids.
The brains of the embryos were examined for morphology and volume by magnetic resonance imaging (MRI). FIGS. 9A, 9B, and 9C show microscopic pictures of the untreated, the BRD7-knockdown, and the BRD7-overexpressing zebrafish embryos, respectively. FIGS. 9D, 9E, and 9F show fluorescent microscopic pictures of the brain regions of the untreated, the BRD7-knockdown, and the BRD7-overexpressing zebrafish embryos, respectively. As shown in these figures, the BRD7-knockdown zebrafish embryos had bigger heads than the untreated embryos. […] The volume of the whole brain of the BRD7-knockdown fish was much bigger than that of the untreated fish, while for the BRD7-overexpressing fish, the brain volume was smaller.
In order to examine the effect of antagonists of Ikaros on brain growth, Ikaros was knocked down or over-expressed in zebrafish embryos. Knockdown of Ikaros was performed by microinjection of antisense morpholino oligonucleotides (AMO). Overexpression of Ikaros was performed by injection of synthesized capped mRNA. AMO or capped mRNA was introduced into one-cell stage embryos by using a nitrogen gas-pressure microinjector IM 300 (Narishige). Conditions for microinjection were as follows: gas pressure was about 15 picosiemens; release period was about 30 to about 50 milliseconds per single injection; concentrations of AMOs and capped mRNA were 400 ng/μl and 250 ng/μl in nuclease-free water, respectively. Capped mRNAs were synthesized in vitro using the mMESSAGE mMachine® in vitro transcription kit (Ambion) from cDNAs cloned into pCS2+ plasmids.
The brains of the embryos were examined for morphology and volume by magnetic resonance imaging (MRI). FIGS. 15A, 15B, and 15C show microscopic pictures of untreated, Ikaros-knockdown, and Ikaros-overexpressing zebrafish embryos at 55 hpf, respectively. As shown in these figures, the Ikaros-knockdown fish had bigger heads than the untreated embryos. […] The volume of the whole brain of the Ikaros-knockdown fish was much bigger than that of the untreated fish, while for the Ikaros-overexpressing fish, the brain volume was smaller.

Substance: 5′-AGAGCTGTAGCTGGTTCCCCATTTC-3′ (all phosphorodiamidate morpholino (PMO)) [CRBN-knockdown, 25-mer antisense morpholino oligonucleotide (AMO) used for the CRBN gene knockdown, reference compound]
- brain size: smaller brains

Substance: 5′-TGTGTTTCTTGTGCTTTTTGCCCAT-3′ (all phosphorodiamidate morpholino (PMO)) [BRD7-knockdown, 25-mer antisense morpholino oligonucleotide (AMO) used for the BRD7 gene knockdown]
- volume of the whole brain compared to untreated fish: much bigger
- head size compared to untreated embryos: bigger heads

Substance: 5′-TTCCTGTGCCTCCTCAGTCTCCATC-3′ (all phosphorodiamidate morpholino (PMO)) [Ikaros-knockdown, 25-mer antisense morpholino oligonucleotide (AMO) used for the Ikaros gene knockdown]
- brain development (22 hpf): macrocephaly
- volume of the whole brain compared to untreated fish: much bigger
- brain size: enlarged brains
- head size compared to untreated embryos: bigger heads

Reference: patent US10272117B2, “Methods of using an activator of cereblon for neural cell expansion and the treatment of central nervous system disorders” (Celgene Corporation, priority 2014, dated 2019)
